The results in this text go back to patent US20240294499A1, “TARGETED PROTEIN DEGRADATION USING BIFUNCTIONAL COMPOUNDS THAT BIND UBIQUITIN LIGASE AND TARGET MCL-1 PROTEIN” (Captor Therapeutics S.A., priority 2021, published 2024).

Assay [1] concerns the target T1, [MCL-1]-[compound of formula (I)]-[CRBN/DDB1] complex (Homo sapiens, UniProt Q07820+Q96SW2). As to the kind of experiment: AlphaLISA dose response ternary complex formation assay. To be noted: for EC50: read-out: AlphaLISA dose response Average pEC50 by molecule (converted). The format is binding. The method, boiled down:
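EC50 comes from dose–response of AlphaLISA luminescence (excitation 680, emission 615 nm), normalised between DMSO background and an internal positive control, with concentrations past the hook point dropped. Ternary complex formed by mixing bead-bound biotin-hMCL-1 and His-CRBN/DDB1 (protein solutions 40 and 200 nM) with compound in 2% DMSO, 30 min, 25 °C.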

Assay [2] concerns the target T1, [MCL-1]-[compound of formula (I)]-[CRBN/DDB1] complex. Nature of the assay: HTRF ternary complex assay. The class given is binding. To be noted: ternary complex formation; for EC50: read-out: HTRF ternary complex Average pEC50 by molecule (converted). Here is the method:
The effect of the bifunctional compounds of the invention on the formation of a ternary complex composed of [MCL-1]-[compound of formula (I)]-[CRBN/DDB1] was investigated.
Mix of protein solution were prepared: • 48 nM hMcl-1 and 105.6 nM CRBN was prepared in PPI Europium detection buffer with 2 mM DTT. • Acceptor and donor stock solutions were diluted 100 times in PPI Europium detection buffer. Equal volumes of both reagents were mixed. Finally giving 3 nM of Streptavidin-Eu cryptate […] and 6.67 nM of Anti-6× his-d2 […].
5 μl of protein mix was dispensed to all wells. The tested compounds in dose-response were dispensed onto a white 384-well low volume plate (Greiner, 784075). DMSO was backfilled to all wells, resulting in a final DMSO content of 0.5%. Wells containing only DMSO served as background. Next, 5 μl of solution with donor and acceptor was added to the wells.
The plate was sealed with transparent film and shaken using a VibroTurbulator for 60 see at level 3. The plate was then spun down shortly (10 s, 1000 rcf) and incubated at 25° C. for 180 min.
The read-out was performed with plate reader (Pherastar, BMG Labtech) in time resolved fluorescence mode. Filterset: TR 337 665 620.
The results were analyzed as follows: • 1) an average of fluorescence for background signal was calculated and used as a negative control; • 2) raw fluorescence values for tested compounds were normalized against negative controls; • 3) bell shape curve was fitted to a gaussian distribution using a non-linear least squares Gauss-Newton algorithm; • 4) EC50 and pEC50 values were determined.

Assay [3] concerns MV-4-11 cells. As to the kind of experiment: Cell viability assay (CellTiter-Glo), MV-4-11. The format is cell-based. To be noted: 1% FBS; for IC50: Homo sapiens, MV4-11, 24 hours incubation, read-out: Average pIC50 by molecule MV-4-11 (converted). The method, boiled down:
(§1)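 Luminescent ATP readout (CellTiter-Glo) at 24 hours measured viability, expressed relative to DMSO-treated wells. Compound was added directly to the medium as a 9–12-point threefold series starting at 30 uM, at 0.5% final DMSO. The medium contained FBS reduced to 1%.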

Assay [4] relates to ARH-77 cells. As to the kind of experiment: Cell viability assay (CellTiter-Glo), ARH-77. The class given is cell-based. As to conditions: 1% FBS; for IC50: Homo sapiens, ARH-77, 24 hours incubation, read-out: Average pIC50 by molecule ARH-77 (converted). The method, boiled down:
as §1

Structures are written as SMILES.

T1 sequence (Q07820 whole entry): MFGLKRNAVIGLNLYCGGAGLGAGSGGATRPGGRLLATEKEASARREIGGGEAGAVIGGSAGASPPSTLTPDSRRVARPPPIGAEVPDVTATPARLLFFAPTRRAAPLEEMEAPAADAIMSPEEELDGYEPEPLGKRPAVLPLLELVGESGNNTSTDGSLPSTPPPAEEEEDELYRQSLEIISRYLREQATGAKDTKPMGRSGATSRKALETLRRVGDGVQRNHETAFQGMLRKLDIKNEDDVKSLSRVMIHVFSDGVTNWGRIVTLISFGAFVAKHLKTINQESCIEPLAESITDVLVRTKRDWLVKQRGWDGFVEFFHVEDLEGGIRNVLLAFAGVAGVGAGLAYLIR
T1 sequence (Q96SW2 whole entry): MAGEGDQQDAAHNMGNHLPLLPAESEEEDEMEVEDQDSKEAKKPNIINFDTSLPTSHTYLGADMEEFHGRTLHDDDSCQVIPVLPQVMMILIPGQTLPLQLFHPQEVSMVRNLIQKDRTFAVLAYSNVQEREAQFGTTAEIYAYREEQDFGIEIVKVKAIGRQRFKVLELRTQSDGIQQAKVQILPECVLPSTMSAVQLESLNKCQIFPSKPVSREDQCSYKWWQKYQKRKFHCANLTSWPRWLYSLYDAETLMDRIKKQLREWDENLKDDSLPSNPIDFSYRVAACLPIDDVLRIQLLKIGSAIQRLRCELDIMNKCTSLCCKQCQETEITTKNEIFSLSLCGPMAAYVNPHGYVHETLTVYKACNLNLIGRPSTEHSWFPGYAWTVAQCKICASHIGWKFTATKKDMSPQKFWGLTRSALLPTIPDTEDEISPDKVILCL
T1 sequence (Q16531 whole entry partner): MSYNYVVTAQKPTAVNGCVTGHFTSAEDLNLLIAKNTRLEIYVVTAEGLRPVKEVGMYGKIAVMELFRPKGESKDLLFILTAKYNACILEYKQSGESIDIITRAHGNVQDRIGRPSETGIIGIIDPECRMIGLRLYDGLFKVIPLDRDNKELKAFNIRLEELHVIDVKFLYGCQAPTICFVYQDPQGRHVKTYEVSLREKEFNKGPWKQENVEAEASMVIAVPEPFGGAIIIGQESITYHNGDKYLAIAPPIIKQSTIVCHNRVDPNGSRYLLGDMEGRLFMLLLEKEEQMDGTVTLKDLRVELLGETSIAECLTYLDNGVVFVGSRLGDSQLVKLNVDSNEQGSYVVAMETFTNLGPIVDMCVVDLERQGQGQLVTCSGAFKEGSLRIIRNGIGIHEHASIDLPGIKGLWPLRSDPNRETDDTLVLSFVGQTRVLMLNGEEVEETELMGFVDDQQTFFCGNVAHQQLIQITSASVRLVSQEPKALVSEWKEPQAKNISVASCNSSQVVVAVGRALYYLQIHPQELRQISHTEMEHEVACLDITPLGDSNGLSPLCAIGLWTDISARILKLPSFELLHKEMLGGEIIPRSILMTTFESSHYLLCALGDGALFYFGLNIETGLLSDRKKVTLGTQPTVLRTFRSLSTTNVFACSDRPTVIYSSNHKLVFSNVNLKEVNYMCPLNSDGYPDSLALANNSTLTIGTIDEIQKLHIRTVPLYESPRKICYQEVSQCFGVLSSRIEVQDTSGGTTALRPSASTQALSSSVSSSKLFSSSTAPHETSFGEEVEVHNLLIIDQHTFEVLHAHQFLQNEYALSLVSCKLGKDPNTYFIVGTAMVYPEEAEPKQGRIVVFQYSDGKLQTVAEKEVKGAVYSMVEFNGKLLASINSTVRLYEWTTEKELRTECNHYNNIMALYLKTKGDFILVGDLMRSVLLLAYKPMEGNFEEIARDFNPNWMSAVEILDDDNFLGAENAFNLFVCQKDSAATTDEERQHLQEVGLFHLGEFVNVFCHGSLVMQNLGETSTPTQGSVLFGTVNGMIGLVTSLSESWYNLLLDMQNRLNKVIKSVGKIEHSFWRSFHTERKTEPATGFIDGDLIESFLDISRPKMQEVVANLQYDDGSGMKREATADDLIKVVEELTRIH

For `Cc1nn(C)c(C)c1-c1c(Cl)ccc2c(CCCOc3cccc4cc(F)ccc34)c(C(=O)O)n(CCCNC(=O)COc3cccc4c3CN(C3CCC(=O)NC3=O)C4=O)c12` (stereo not drawn) [Compound 330, 6-Chloro-1-[3-(2-{[2-(2,6-dioxopiperidin-3-yl)-1-oxo-2,3-dihydro-1H-isoindol-4-yl]oxy}acetamido)propyl]-3-{3-[(6-fluoronaphthalen-1-yl)oxy]propyl}-7-(1,3,5-trimethyl-1H-pyrazol-4-yl)-1H-indole-2-carboxylic acid], the EC50 in assay [1] and in assay [2] was less than 100 nM in each case. The values for the IC50 in assay [3] and in assay [4] were not above 100 nM and more than 10000 nM, respectively.
As to `Cc1nn(C)c(C)c1-c1c(Cl)ccc2c(CCCOc3cccc4cc(F)ccc34)c(C(=O)O)n(CCCOCCn3c(C)nc4c(C(=O)NC5CCC(=O)NC5=O)cccc43)c12` (stereo not drawn) [Compound 280, 6-Chloro-1-[3-(2-{4-[(2,6-dioxopiperidin-3-yl)carbamoyl]-2-methyl-1H-1,3-benzodiazol-1-yl}ethoxy)propyl]-3-{3-[(6-fluoronaphthalen-1-yl)oxy]propyl}-7-(1,3,5-trimethyl-1H-pyrazol-4-yl)-1H-indole-2-carboxylic acid], the EC50 in assay [1] and in assay [2] was less than 10 nM each time. Further, the IC50 in assay [3] was not above 100 nM; in assay [4], more than 3160 nM.
Turning to `Cc1nn(C)c(C)c1-c1c(Cl)ccc2c(CCCOc3cccc4cc(F)ccc34)c(C(=O)O)n(CCN3CCC(Nc4cccc5c4C(=O)N(C4CCC(=O)NC4=O)C5=O)CC3)c12` (stereo not drawn) [Compound 308], the EC50 in assay [1] and in assay [2] was less than 100 nM throughout. Also, the IC50 in assay [3] is not above 316 nM; in assay [4] it was more than 3160 nM.
Regarding `Cc1nn(C)c(C)c1-c1c(Cl)ccc2c(CCCOc3cccc4cc(F)ccc34)c(C(=O)O)n(CCN3CCN(C(=O)Cn4c(C)nc5c(C(=O)NC6CCC(=O)NC6=O)ccc(C)c54)CC3)c12` (stereo not drawn) [Compound 270, 6-Chloro-1-{2-[4-(2-{4-[(2,6-dioxopiperidin-3-yl)carbamoyl]-2,7-dimethyl-1H-1,3-benzodiazol-1-yl}acetyl)piperazin-1-yl]ethyl}-3-{3-[(6-fluoronaphthalen-1-yl)oxy]propyl}-7-(1,3,5-trimethyl-1H-pyrazol-4-yl)-1H-indole-2-carboxylic acid], the results for the EC50 in assay [1] and in assay [2] were less than 100 nM and less than 10 nM, respectively. Besides, the IC50 is not above 100 nM in assay [3] and more than 10000 nM in assay [4].
In the same order, the values of `Cc1nn(C)c(C)c1-c1c(Cl)ccc2c(CCCOc3cccc4ccccc34)c(C(=O)O)n(CCN3CCC(NC(=O)COc4cccc5c4CN(C4CCC(=O)NC4=O)C5=O)CC3)c12` (stereo not drawn) [Compound 221, 6-chloro-1-{2-[4-(2-{[2-(2,6-dioxopiperidin-3-yl)-1-oxo-2,3-dihydro-1H-isoindol-4-yl]oxy}acetamido)piperidin-1-yl]ethyl}-3-[3-(naphthalen-1-yloxy)propyl]-7-(1,3,5-trimethyl-1H-pyrazol-4-yl)-1H-indole-2-carboxylic acid] are less than 100 nM, less than 100 nM, not above 10000 nM and more than 31600 nM.
Regarding `Cc1nn(C)c(C)c1-c1c(Cl)ccc2c(CCCOc3cccc4ccc(F)cc34)c(C(=O)O)n(CCN3CCN(C(=O)COc4cccc5c4CN(C4CCC(=O)NC4=O)C5=O)CC3)c12` (stereo not drawn) [Compound 354, 6-Chloro-1-(2-(4-(2-((2-(2,6-dioxopiperidin-3-yl)-1-oxoisoindolin-4-yl)oxy)acetyl)piperazin-1-yl)ethyl)-3-(3-((7-fluoronaphthalen-1-yl)oxy)propyl)-7-(1,3,5-trimethyl-1H-pyrazol-4-yl)-1H-indole-2-carboxylic acid], the EC50 in assay [1] and in assay [2] was less than 100 nM each time. Besides, the IC50 in assay [3] is not above 100 nM; in assay [4], more than 10000 nM.
As for `Cc1nn(C)c(C)c1-c1c(Cl)ccc2c(CCCOc3cccc4cc(F)ccc34)c(C(=O)O)n(CCCNC(=O)Cn3c(C)nc4c(C(=O)NC5CCC(=O)NC5=O)cccc43)c12` (stereo not drawn) [Compound 281, 6-Chloro-1-[3-(2-{4-[(2,6-dioxopiperidin-3-yl)carbamoyl]-2-methyl-1H-1,3-benzodiazol-1-yl}acetamido)propyl]-3-{3-[(6-fluoronaphthalen-1-yl)oxy]propyl}-7-(1,3,5-trimethyl-1H-pyrazol-4-yl)-1H-indole-2-carboxylic acid], the EC50 is less than 100 nM in assay [1] and less than 10 nM in assay [2]. The IC50 is not above 100 nM in assay [3] and more than 10000 nM in assay [4].
With `Cc1nn(C)c(C)c1-c1c(Cl)ccc2c(CCCOc3cccc4cc(F)ccc34)c(C(=O)O)n(CCN3CCN(C(=O)COc4cccc5c4CN(C4CCC(=O)NC4=O)C5=O)CC3)c12` (atropisomer, axis not shown; (Sa)) [Compound 295, (Sa)-6-Chloro-1-(2-(4-(2-((2-(2,6-dioxopiperidin-3-yl)-1-oxoisoindolin-4-yl)oxy)acetyl)piperazin-1-yl)ethyl)-3-(3-((6-fluoronaphthalen-1-yl)oxy)propyl)-7-(1,3,5-trimethyl-1H-pyrazol-4-yl)-1H-indole-2-carboxylic acid], in assay [1], the “AlphaLISA dose response Average pEC50 by molecule” value is more than 7. Further, the “HTRF ternary complex Average pEC50 by molecule” value in assay [2] was more than 7. In assay [3] (24 hours incubation), the “Average pIC50 by molecule MV-4-11” value is reported as not below 7.5. Also, the “Average pIC50 by molecule ARH-77” value in assay [4] (24 hours incubation) was less than 5.0.
For `Cc1nn(C)c(C)c1-c1c(Cl)ccc2c(CCCOc3cccc4cc(F)ccc34)c(C(=O)O)n(CCCCCN(C)C(=O)COc3cccc4c3CN(C3CCC(=O)NC3=O)C4=O)c12` (stereo not drawn) [Compound 328, 6-Chloro-1-(5-(2-((2-(2,6-dioxopiperidin-3-yl)-1-oxoisoindolin-4-yl)oxy)-N-methylacetamido)pentyl)-3-(3-((6-fluoronaphthalen-1-yl)oxy)propyl)-7-(1,3,5-trimethyl-1H-pyrazol-4-yl)-1H-indole-2-carboxylic acid], the EC50 in assay [1] and in assay [2] was less than 100 nM in each case. The IC50 in assay [3] was not above 31.6 nM; in assay [4] it was more than 3160 nM.
In the case of `Cc1nn(C)c(C)c1-c1c(Cl)ccc2c(CCCOc3cccc4cc(F)ccc34)c(C(=O)O)n(CCN3CCN(CC4CN(c5cc6c(cc5F)C(=O)N(C5CCC(=O)NC5=O)C6=O)C4)CC3)c12` (stereo not drawn) [Compound 334, 6-Chloro-1-(2-(4-((1-(2-(2,6-dioxopiperidin-3-yl)-6-fluoro-1,3-dioxoisoindolin-5-yl)azetidin-3-yl)methyl)piperazin-1-yl)ethyl)-3-(3-((6-fluoronaphthalen-1-yl)oxy)propyl)-7-(1,3,5-trimethyl-1H-pyrazol-4-yl)-1H-indole-2-carboxylic acid], the EC50 in assay [2] is less than 10 nM. Also, the IC50 in assay [3] was not above 100 nM; in assay [4] it was more than 3160 nM.
In the same order, the values of `Cc1nn(C)c(C)c1-c1c(Cl)ccc2c(CCCOc3cccc4cc(F)ccc34)c(C(=O)O)n(CCC3CN(C(=O)COc4cccc5c4CN(C4CCC(=O)NC4=O)C5=O)C3)c12` (stereo not drawn) [Compound 299, 6-Chloro-1-(2-(1-(2-((2-(2,6-dioxopiperidin-3-yl)-1-oxoisoindolin-4-yl)oxy)acetyl)azetidin-3-yl)ethyl)-3-(3-((6-fluoronaphthalen-1-yl)oxy)propyl)-7-(1,3,5-trimethyl-1H-pyrazol-4-yl)-1H-indole-2-carboxylic acid] are less than 100 nM, not above 100 nM and more than 10000 nM.
The corresponding values for `Cc1nn(C)c(C)c1-c1c(Cl)ccc2c(CCCOc3cccc4cc(F)ccc34)c(C(=O)O)n(CCN3CC(N4CCN(c5cc6c(cc5F)C(=O)N(C5CCC(=O)NC5=O)C6=O)CC4)C3)c12` (stereo not drawn) [Compound 337, 6-Chloro-1-(2-(3-(4-(2-(2,6-dioxopiperidin-3-yl)-6-fluoro-1,3-dioxoisoindolin-5-yl)piperazin-1-yl)azetidin-1-yl)ethyl)-3-(3-((6-fluoronaphthalen-1-yl)oxy)propyl)-7-(1,3,5-trimethyl-1H-pyrazol-4-yl)-1H-indole-2-carboxylic acid] are less than 10 nM, not above 316 nM and more than 10000 nM.
